Laboratory results: US20170050957A1, “4-AMINO-6-(HETEROCYCLIC)PICOLINATES AND 6-AMINO-2-(HETEROCYCLIC)PYRIMIDINE-4-CARBOXYLATES AND THEIR USE AS HERBICIDES” (Dow AgroSciences LLC, priority 2013, published 2017)
Read-outs that look alike come from different tables or passages of the source.

What was measured:
[1] = system: Key Broadleaf Weed and Crop Species; test: Post-emergent Test II herbicidal activity (Table 15); assay type: in vivo; details: post-emergence, 336 h, 14 d; for pest or weed control at 35 g/ha: 35 g ai/ha; for pest or weed control at 70 g/ha: 70 g ai/ha; for pest or weed control at 140 g/ha: 140 g ai/ha
Procedure, shortened: (§1)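 Herbicidal effect scored as percent visual injury, 14 d after post-emergent application. Spray solutions contained acetone, DMSO, isopropyl alcohol, crop oil concentrate and surfactant, applied at 187 L/ha to young plants (1-2 true leaves).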

[2] = system: Key Grass and Sedge Weeds as well as Grass Crops; test: Post-emergent Test II herbicidal activity (Table 16); assay type: in vivo; details: post-emergence, 336 h, 14 days after application; for pest or weed control at 35 g/ha: 35 g ai/ha; for pest or weed control at 70 g/ha: 70 g ai/ha; for pest or weed control at 140 g/ha: 140 g ai/ha
Procedure, shortened: as §1

[3] = Abutilon theophrasti, velvetleaf (Abutilon theophrasti), read-out: Visual Growth Reduction (%) 14 Days After Application, ABUTH
[4] = Amaranthus retroflexus, redroot pigweed (Amaranthus retroflexus), read-out: Visual Growth Reduction (%) 14 Days After Application, AMARE
[5] = Brassica napus, oilseed rape, canola (Brassica napus), read-out: Visual Growth Reduction (%) 14 Days After Application, BRSNN
[6] = Chenopodium album, lambsquarters (Chenopodium album), read-out: Visual Growth Reduction (%) 14 Days After Application, CHEAL
[7] = Euphorbia heterophylla, wild poinsettia (Euphorbia heterophylla), read-out: Visual Growth Reduction (%) 14 Days After Application, EPHHL
[8] = Helianthus annuus, sunflower (Helianthus annuus), read-out: Visual Growth Reduction (%) 14 Days After Application, HELAN
[9] = Cyperus esculentus, yellow nutsedge (Cyperus esculentus), read-out: Visual Growth Reduction (%) 14 Days After Application CYPES
[10] = Echinochloa crus-galli, barnyardgrass (Echinochloa crus-galli), read-out: Visual Growth Reduction (%) 14 Days After Application ECHCG
[11] = Oryza sativa, rice (Oryza sativa), read-out: Visual Growth Reduction (%) 14 Days After Application ORYSA
[12] = Setaria faberi, giant foxtail (Setaria faberi), read-out: Visual Growth Reduction (%) 14 Days After Application SETFA
[13] = Triticum aestivum, wheat, spring (Triticum aestivum), read-out: Visual Growth Reduction (%) 14 Days After Application TRZAS
[14] = Zea mays, maize, corn (Zea mays), read-out: Visual Growth Reduction (%) 14 Days After Application ZEAMX

COC(=O)c1nc(-c2ccc3ccsc3c2)nc(N)c1OC [Compound 3.20]
143 to 145 °C: melting point
30 to 44%: pest or weed control at 35 g/ha [1, 5] | pest or weed control at 35 g/ha [2, 9] | pest or weed control at 70 g/ha [2, 9] | pest or weed control at 140 g/ha [2, 13]
0 to 29%: pest or weed control at 35 g/ha [1, 3] | pest or weed control at 70 g/ha [1, 3] | pest or weed control at 140 g/ha [1, 3] | pest or weed control at 35 g/ha [1, 4] | pest or weed control at 35 g/ha [2, 10] | pest or weed control at 35 g/ha [2, 11] | pest or weed control at 70 g/ha [2, 11] | pest or weed control at 140 g/ha [2, 11] | pest or weed control at 35 g/ha [2, 12] | pest or weed control at 70 g/ha [2, 12] | pest or weed control at 35 g/ha [2, 13] | pest or weed control at 70 g/ha [2, 13] | pest or weed control at 35 g/ha [2, 14]
75 to 84%: pest or weed control at 35 g/ha [1, 7] | pest or weed control at 35 g/ha [1, 8] | pest or weed control at 70 g/ha [2, 14]
85 to 94%: pest or weed control at 35 g/ha [1, 6] | pest or weed control at 70 g/ha [1, 8] | pest or weed control at 140 g/ha [1, 8] | pest or weed control at 140 g/ha [2, 9] | pest or weed control at 140 g/ha [2, 14]
45 to 59%: pest or weed control at 70 g/ha [2, 10]
60 to 74%: pest or weed control at 70 g/ha [1, 4] | pest or weed control at 140 g/ha [1, 4] | pest or weed control at 70 g/ha [1, 5] | pest or weed control at 140 g/ha [1, 5] | pest or weed control at 140 g/ha [2, 10] | pest or weed control at 140 g/ha [2, 12]
95 to 100%: pest or weed control at 70 g/ha [1, 6] | pest or weed control at 140 g/ha [1, 6] | pest or weed control at 70 g/ha [1, 7] | pest or weed control at 140 g/ha [1, 7]
